# Test system: 653999-131-R-J2-PDC complex spheroids, growth inhibition
# Assay: Anticancer human tumor 653999-131-R-J2-PDC patient-derived lung adenocarcinoma cell line growth inhibition [RAS]
# Details: for IC50: curve of first compound; for viability, T/C: stronger effect = lower value
# Summary of the method: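 Tumour cells grown as complex spheroids with HUVEC endothelial cells and mesenchymal stem cells, treated with RAS pathway inhibitor combinations. Each agent spans half-log steps from near clinical Cmax, or 10 microM where Cmax is unknown.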
# [1] = second compound 0.0316 µM, first compound 0.0316 µM
# [2] = second compound 0.0316 µM, first compound 0.1 µM
# [3] = second compound 0.0316 µM, first compound 0.316 µM
# [4] = second compound 0.0316 µM, first compound 1 µM
# [5] = second compound 0.1 µM, first compound 0.0316 µM
# [6] = second compound 0.1 µM, first compound 0.1 µM
# [7] = second compound 0.1 µM, first compound 0.316 µM
# [8] = second compound 0.1 µM, first compound 1 µM
# [9] = second compound 0.316 µM, first compound 0.0316 µM
# [10] = second compound 0.316 µM, first compound 0.1 µM
# [11] = second compound 0.316 µM, first compound 0.316 µM
# [12] = second compound 0.316 µM, first compound 1 µM
# [13] = second compound 1 µM, first compound 0.0316 µM
# [14] = second compound 1 µM, first compound 0.1 µM
# [15] = second compound 1 µM, first compound 0.316 µM
# [16] = second compound 1 µM, first compound 1 µM
# 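Also: spheroids exposed to the agents for seven days before the readout.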
structure (smiles),measurement,setting,value
NC1c2ccccc2OC12CCN(c1cnc3c(N4CCCc5ncccc54)n[nH]c3n1)CC2 (centres undefined) + C#Cc1c(F)ccc2cc(O)cc(-c3ncc4c(N5CC6CCC(C5)N6)nc(OCC56CCCN5CC(F)C6)nc4c3F)c12,IC50,second compound 0.0316 µM,> 10000 nM
same,IC50,second compound 0.1 µM,1390 nM
same,IC50,second compound 0.316 µM,< 31.6 nM
same,IC50,second compound 1 µM,< 31.6 nM
same,IC50,second compound 3.16 µM,< 31.6 nM
same,IC50,second compound 10 µM,< 31.6 nM
same,"viability, T/C",[1],72.8%
same,"viability, T/C",[2],67.5%
same,"viability, T/C",[3],64.5%
same,"viability, T/C",[4],72.2%
same,"viability, T/C","second compound 0.0316 µM, first compound 3.16 µM",71.3%
same,"viability, T/C","second compound 0.0316 µM, first compound 10 µM",60.2%
same,"viability, T/C",[5],64.5%
same,"viability, T/C",[6],75.4%
same,"viability, T/C",[7],60.1%
same,"viability, T/C",[8],53.2%
same,"viability, T/C","second compound 0.1 µM, first compound 3.16 µM",44.6%
same,"viability, T/C","second compound 0.1 µM, first compound 10 µM",41.1%
same,"viability, T/C",[9],48%
same,"viability, T/C",[10],50.4%
same,"viability, T/C",[11],40.4%
same,"viability, T/C",[12],42.7%
same,"viability, T/C","second compound 0.316 µM, first compound 3.16 µM",32.6%
same,"viability, T/C","second compound 0.316 µM, first compound 10 µM",45.8%
same,"viability, T/C",[13],41.7%
same,"viability, T/C",[14],34.8%
same,"viability, T/C",[15],33.9%
same,"viability, T/C",[16],32.4%
same,"viability, T/C","second compound 1 µM, first compound 3.16 µM",32.7%
same,"viability, T/C","second compound 1 µM, first compound 10 µM",19.5%
same,"viability, T/C","second compound 3.16 µM, first compound 0.0316 µM",30.3%
same,"viability, T/C","second compound 3.16 µM, first compound 0.1 µM",25.8%
same,"viability, T/C","second compound 3.16 µM, first compound 0.316 µM",16.9%
same,"viability, T/C","second compound 3.16 µM, first compound 1 µM",18.1%
same,"viability, T/C","second compound 3.16 µM, first compound 3.16 µM",18.7%
same,"viability, T/C","second compound 3.16 µM, first compound 10 µM",13%
same,"viability, T/C","second compound 10 µM, first compound 0.0316 µM",12%
same,"viability, T/C","second compound 10 µM, first compound 0.1 µM",7.13%
same,"viability, T/C","second compound 10 µM, first compound 0.316 µM",7.02%
same,"viability, T/C","second compound 10 µM, first compound 1 µM",6.33%
same,"viability, T/C","second compound 10 µM, first compound 3.16 µM",7.29%
same,"viability, T/C","second compound 10 µM, first compound 10 µM",7.2%
Nc1ccn(C2OC(CO)C(O)C2(F)F)c(=O)n1 (centres undefined) + C=CC(=O)N1CCN(c2nc(OCC3CCCN3C)nc3c(F)c(-c4nc(N)cc(C)c4C(F)(F)F)c(Cl)cc23)C(C)C1,IC50,second compound 0.00316 µM,126 nM
same,IC50,second compound 0.01 µM,61.8 nM
same,IC50,second compound 0.0316 µM,84.6 nM
same,IC50,second compound 0.1 µM,47.2 nM
same,IC50,second compound 0.316 µM,93.4 nM
same,IC50,second compound 1 µM,90.3 nM
same,"viability, T/C","second compound 0.00316 µM, first compound 0.00316 µM",86.5%
same,"viability, T/C","second compound 0.00316 µM, first compound 0.01 µM",82.4%
same,"viability, T/C","second compound 0.00316 µM, first compound 0.0316 µM",61.8%
same,"viability, T/C","second compound 0.00316 µM, first compound 0.1 µM",56%
same,"viability, T/C","second compound 0.00316 µM, first compound 0.316 µM",38.7%
same,"viability, T/C","second compound 0.00316 µM, first compound 1 µM",32%
same,"viability, T/C","second compound 0.01 µM, first compound 0.00316 µM",107%
same,"viability, T/C","second compound 0.01 µM, first compound 0.01 µM",78.3%
same,"viability, T/C","second compound 0.01 µM, first compound 0.0316 µM",54%
same,"viability, T/C","second compound 0.01 µM, first compound 0.1 µM",45.9%
same,"viability, T/C","second compound 0.01 µM, first compound 0.316 µM",41.2%
same,"viability, T/C","second compound 0.01 µM, first compound 1 µM",29.7%
same,"viability, T/C","second compound 0.0316 µM, first compound 0.00316 µM",80.3%
same,"viability, T/C","second compound 0.0316 µM, first compound 0.01 µM",79.8%
same,"viability, T/C",[1],67.8%
same,"viability, T/C",[2],46.6%
same,"viability, T/C",[3],38.2%
same,"viability, T/C",[4],33.8%
same,"viability, T/C","second compound 0.1 µM, first compound 0.00316 µM",84.3%
same,"viability, T/C","second compound 0.1 µM, first compound 0.01 µM",77.3%
same,"viability, T/C",[5],55.7%
same,"viability, T/C",[6],38.2%
same,"viability, T/C",[7],40.1%
same,"viability, T/C",[8],30.5%
same,"viability, T/C","second compound 0.316 µM, first compound 0.00316 µM",94.6%
same,"viability, T/C","second compound 0.316 µM, first compound 0.01 µM",80.4%
same,"viability, T/C",[9],59.9%
same,"viability, T/C",[10],48.2%
same,"viability, T/C",[11],42.2%
same,"viability, T/C",[12],29.8%
same,"viability, T/C","second compound 1 µM, first compound 0.00316 µM",89.5%
same,"viability, T/C","second compound 1 µM, first compound 0.01 µM",81.4%
same,"viability, T/C",[13],60.6%
same,"viability, T/C",[14],48.9%
same,"viability, T/C",[15],42.2%
same,"viability, T/C",[16],33.7%
